Experimental data published in US20080280868A1, “Pyridine Derivatives and Their Use as Cb2 Receptor Modulators” (priority 2004, published 2008).
Where a name gives a salt, the structure may show the parent alone. Read-outs that look alike come from different tables or passages of the source.

Molecular target: T1, human cannabinoid CB2 receptor (Homo sapiens, UniProt P34972)
T1 construct: expressed in transfected cells; host or cells: Saccharomyces cerevisiae strain MMY23 (cassette integrated at the ura3 locus, GPD promoter)
Test: Cannabinoid CB2 receptor agonist activity in yeast cells (FDGlu fluorescence)
Type: cell-based
Conditions: for Emax: read-out: efficacy value (Emax) at the cloned human cannabinoid CB2 receptor
Procedure: The cannabinoid CB2 receptor agonist activity of the compounds of formula (I) was determined in accordance with the following experimental method.
Yeast (Saccharomyces cerevisiae) cells expressing the human cannabinoid CB2 receptor were generated by integration of an expression cassette into the ura3 chromosomal locus of yeast strain MMY23. This cassette consisted of DNA sequence encoding the human CB2 receptor flanked by the yeast GPD promoter to the 5′ end of CB2 and a yeast transcriptional terminator sequence to the 3′ end of CB2. MMY23 expresses a yeast/mammalian chimeric G-protein alpha subunit in which the C-terminal 5 amino acids of Gpal are replaced with the C-terminal 5 amino acids of human Gαi3 (as described in Brown et al. (2000), Yeast 16:11-22).
Agonists were prepared as 10 mM stocks in DMSO. […] Agonist solutions in DMSO (1% final assay volume) were transferred into black, clear bottom, microtitre plates from NUNC (96- or 384-well). Cells were suspended at a density of 0.2 OD600/ml in SC media lacking histidine, uracil, tryptophan, adenine and leucine and supplemented with 10 mM 3-aminotriazole, 0.1M sodium phosphate pH 7.0, and […] fluorescein di-β-D-glucopyranoside (FDGlu). […] After incubation at 30° C. for 24 hours, fluorescence resulting from degradation of FDGlu to fluorescein due to exoglucanase, an endogenous yeast enzyme produced during agonist-stimulated cell growth, was determined using a Spectrofluor microtitre plate reader (Tecan; excitation wavelength: 485 nm; emission wavelength: 535 nm). Fluorescence was plotted against compound concentration and iteratively curve fitted using a four parameter fit to generate a concentration effect value. Efficacy (Emax) was calculated from the equation
Equieffective molar ratio (EMR) values were calculated from the equation

[1] = Emax relative to HU210, yeast expressing human CB2
[2] = yeast (Saccharomyces cerevisiae) expressing human CB2, agonist, 30° C. for 24 hours, read-out: EC50 at the cloned human cannabinoid CB2 receptor

T1 sequence (P34972 whole entry): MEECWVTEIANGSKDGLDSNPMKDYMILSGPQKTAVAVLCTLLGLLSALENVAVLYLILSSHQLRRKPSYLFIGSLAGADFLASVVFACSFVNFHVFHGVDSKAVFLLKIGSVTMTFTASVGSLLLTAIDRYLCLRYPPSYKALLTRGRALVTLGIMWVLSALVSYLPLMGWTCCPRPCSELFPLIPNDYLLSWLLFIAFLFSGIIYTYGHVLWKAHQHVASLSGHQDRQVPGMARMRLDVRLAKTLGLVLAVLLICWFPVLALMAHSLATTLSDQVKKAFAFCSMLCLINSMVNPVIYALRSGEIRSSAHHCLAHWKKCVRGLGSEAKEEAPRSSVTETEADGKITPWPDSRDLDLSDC

## CC(C)c1cc(N(C)c2cccc(Br)c2)ncc1CNCC1CCOCC1 [Example 49, (3-Bromo-phenyl)-(4-isopropyl-5-{[(tetrahydro-pyran-4-ylmethyl)-amino]-methyl}-pyridin-2-yl)-methyl-amine, compound withformic acid (1:1)]
[1]
  Emax: > 50%
[2]
  EC50: < 300 nM

## CC(C)c1cc(Nc2cccc(Cl)c2)ncc1CNCC1CCCC1 [Example 50, (3-Chloro-phenyl)-{5-[(cyclopentylmethyl-amino)-methyl]-4-isopropyl-pyridin-2-yl}-amine, compound with formic acid(1:1)]
  EC50: < 300 nM
  Emax: > 50%

## CC(C)CNCc1cnc(Nc2cccc(C(F)(F)F)c2)cc1C(C)C [Example 51, [5-(Isobutylamino-methyl)-4-isopropyl-pyridin-2-yl]-(3-trifluoromethyl-phenyl)-amine,compound with formic acid (1:1,25)]
[1]
  Emax: > 50%
[2]
  EC50: < 300 nM

## Fc1ccc(CNCc2cnc(Nc3cccc(Cl)c3)cc2C2CC2)cc1 [Example 52, (3-Chloro-phenyl)-{4-cyclopropyl-5-[(4-fluorobenzylamino)methyl]-pyridin-2-yl}-amine dihydrochloride]
  EC50: < 300 nM
  Emax: > 50%

## Fc1ccc(CNCc2cnc(Nc3ccc(Cl)cc3Cl)cc2C(F)(F)F)cc1 [Example 54, (2,4-Dichlorophenyl)-{5-[(4-fluoro-benzylamino)-methyl]-4-trifluoromethyl-pyridin-2-yl}-amine]
[2]
  EC50: 300 to 1000 nM

## CCCNCc1cnc(Nc2cccc(Cl)c2)cc1C1CC1 [Example 55, (3-Chloro-phenyl)-(4-cyclopropyl-5-propylaminomethyl-pyridin-2-yl) amine dihydrochloride]
  EC50: < 300 nM
  Emax: > 50%

## CC(C)c1cc(Nc2cccc(C(F)(F)F)c2F)ncc1C(C)NCC1CCC1 (stereo not shown) [Example 56, {[1-Cyclobutylmethyl-amino)ethyl]-4-isopropyl-pyridin-2-yl}-(2-fluoro-3-trifluoromethyl-phenyl)-amine dihydrochloride]
  EC50: < 300 nM
  Emax: > 50%

## CC(C)c1cc(Nc2cccc(Cl)c2)ncc1CN1CCC(F)(F)CC1 [Example 57, (3-Chloro-phenyl)-[5-(4,4-difluoro-piperidin-1-ylmethyl)-4-isopropylpyridin-2-yl]-amine dihydrochloride]
  EC50: < 300 nM
  Emax: > 50%

## CC(C)c1cc(Nc2cccc(Cl)c2)ncc1CN1CCCC1 [Example 58, (3-Chloro-phenyl)-(4-isopropyl-5-pyrrolidin-1-ylmethyl-pyridin-2-yl)-amine. dihydrochloride]
  EC50: < 300 nM
  Emax: > 50%

## CC(C)c1cc(Nc2cccc(Cl)c2)ncc1CN1CCC1 [Example 59, (5-Azetidin-1-ylmethyl-4-isopropyl-pyridin-2-yl)-(3-chloro-phenyl)-amine.dihydrochloride]
[2]
  EC50: < 300 nM

## CC(C)c1cc(Nc2cccc(Cl)c2)ncc1CN1CCSCC1 [Example 60, (3-Chloro-phenyl)-(4-isopropyl-5-thiomorpholin-4-ylmethyl-pyridin-2-yl)-amine. dihydrochloride]
  EC50: < 300 nM
  Emax: > 50%

## CC(C)c1cc(Nc2ccc(Cl)cc2Cl)ncc1CN1CCSCC1 [Example 61, (2,4-Dichloro-phenyl)-(4-isopropyl-5thiomorpholin-4-ylmethyl-pyridin-2-yl)-amine dihydrochloride]
  EC50: < 300 nM
  Emax: > 50%

## Clc1cccc(Nc2cc(C3CC3)c(CNCC3CCCC3)cn2)c1 [Example 62, (3-Chloro-phenyl)-{5-[(cyclopentylmethyl-amino)-methyl]-4-cyclopropyl-pyridin-2-yl}-amine di-Hydrochloride]
  EC50: < 300 nM
  Emax: > 50%

## O=S1(=O)CCC(NCc2cnc(Nc3cccc(Cl)c3)cc2C2CC2)CC1 [Example 63, (3-Chloro-phenyl)-{4-cyclopropyl-5-[(1,1-dioxo-hexahydro-1l^6-thiopyran-4-ylamino)-methyl]-pyridin-2-yl}-amine di-hydrochloride]
  EC50: < 300 nM
  Emax: > 50%

## CC(C)c1cc(Nc2cccc(Cl)c2)ncc1CNC(C)(C)C [Example 65, [5-(tert-Butylamino-methyl)isopropyl-pyridin-2-yl]-(3-chloro-phenyl)amine dihydrochloride]
  EC50: 300 to 1000 nM
  Emax: > 50%
